This is an account of results in paper PMC12275099, “VX-445 (elexacaftor) inhibits chloride secretion across human bronchial epithelial cells by directly blocking KCa3.1 channels” (PNAS Nexus, 2025).

Values joined by “and” are separate entries in the source; they are usually repeats but may differ in a detail not shown here. Identical values can stand only once.

In one assay the target is KCa2.3 (Homo sapiens, UniProt Q9UGI6). As to the kind of experiment: Excised inside-out patch-clamp on HEK cells expressing KCa2.3. The class given is biochemical. The protocol: (§1) As above, we performed excised patch-clamp recordings on HEK cells heterologously expressing KCa2.3 or KCa2.2, in order to assess the activity of C2 CFTR corrector compounds. […] In contrast, the subsequent addition of 10 µM VX-659 yielded an almost complete inhibition of KCa2.3 currents, averaging 91 ± 3% (n = 4).
KCa2.3, sequence (Q9UGI6 whole entry): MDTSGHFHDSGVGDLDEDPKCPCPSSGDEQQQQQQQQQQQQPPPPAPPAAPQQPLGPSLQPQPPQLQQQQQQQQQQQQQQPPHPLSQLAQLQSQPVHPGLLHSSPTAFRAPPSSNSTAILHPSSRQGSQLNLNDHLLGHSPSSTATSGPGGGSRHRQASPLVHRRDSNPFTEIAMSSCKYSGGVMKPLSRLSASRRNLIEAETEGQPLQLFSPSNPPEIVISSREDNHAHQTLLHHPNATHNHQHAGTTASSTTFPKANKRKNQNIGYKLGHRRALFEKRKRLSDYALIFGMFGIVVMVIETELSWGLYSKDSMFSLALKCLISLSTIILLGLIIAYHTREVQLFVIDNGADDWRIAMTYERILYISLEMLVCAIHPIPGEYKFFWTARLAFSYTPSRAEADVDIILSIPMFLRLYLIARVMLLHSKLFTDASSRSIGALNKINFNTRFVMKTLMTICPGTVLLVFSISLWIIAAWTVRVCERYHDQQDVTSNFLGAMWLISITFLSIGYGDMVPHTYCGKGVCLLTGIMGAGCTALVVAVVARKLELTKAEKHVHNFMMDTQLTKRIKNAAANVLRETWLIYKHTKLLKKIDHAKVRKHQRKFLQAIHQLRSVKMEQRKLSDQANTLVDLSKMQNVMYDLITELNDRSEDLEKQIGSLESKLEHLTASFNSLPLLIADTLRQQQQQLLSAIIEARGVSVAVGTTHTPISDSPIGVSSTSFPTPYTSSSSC
(§2) HEK cells stably expressing KCa3.1 (IK1, SK4), KCa2.3 (SK3), and KCa2.2 (SK2) were generated and cultured as previously described by us ([37], [66–71]).
HEK cells expressing the channel of interest were plated onto poly-L-lysine-coated glass coverslips 1–2 days prior to patch-clamp analysis. Electrophysiological recordings in the excised, inside-out, and whole-cell patch-clamp configurations were performed as recently described ([14]). For excised patch-clamp recordings, the pipette solution contained (in mM): 140 K-gluconate, 5 KCl, 1 CaCl2, 1 MgCl2, and 10 HEPES. The pH was adjusted to 7.2 with KOH. The bath solution contained (in mM): 145 K-gluconate, 5 KCl, 1.3 MgCl2, 10 HEPES, and 1 EGTA. Sufficient CaCl2 was added to obtain the desired free Ca^2+ concentration at a pH of 7.2 (adjusted with KOH). When recording KCa3.1 channels, ATP (300 µM) was added to the bath to diminish channel rundown ([73]). All recordings were carried out at a voltage of −100 mV, referenced to the extracellular compartment, as is standard. The apparent Ki and Hill coefficient for each CFTR corrector on KCa3.1, KCa2.3, and KCa2.2 were determined during a continuous recording by step-wise addition of increasing concentrations of compound and fitting the resultant relative remaining current to a Hill equation (Prism v. 10.1.0). The zero current level was determined by the addition of a 0 Ca^2+ solution (zero-added Ca^2+ plus 1 mM EGTA) at the end of the experiment. […] Current–voltage relationships were determined by stepping from a holding potential of −80 mV to +80 mV in 20 mV increments for 400 ms. The middle 300 ms of each trace was selected to avoid any influence of capacitive transients, and average currents were calculated for each voltage via the I–V tool in Clampfit. […]

The target in another assay is KCa2.2 (Rattus norvegicus, UniProt P70604). The assay can be described thus: Excised inside-out patch-clamp on HEK cells expressing KCa2.2. The conditions noted are these: 1 µM free Ca2+. The class given is biochemical. The protocol: as §1, §2
KCa2.2, sequence (P70604 whole entry): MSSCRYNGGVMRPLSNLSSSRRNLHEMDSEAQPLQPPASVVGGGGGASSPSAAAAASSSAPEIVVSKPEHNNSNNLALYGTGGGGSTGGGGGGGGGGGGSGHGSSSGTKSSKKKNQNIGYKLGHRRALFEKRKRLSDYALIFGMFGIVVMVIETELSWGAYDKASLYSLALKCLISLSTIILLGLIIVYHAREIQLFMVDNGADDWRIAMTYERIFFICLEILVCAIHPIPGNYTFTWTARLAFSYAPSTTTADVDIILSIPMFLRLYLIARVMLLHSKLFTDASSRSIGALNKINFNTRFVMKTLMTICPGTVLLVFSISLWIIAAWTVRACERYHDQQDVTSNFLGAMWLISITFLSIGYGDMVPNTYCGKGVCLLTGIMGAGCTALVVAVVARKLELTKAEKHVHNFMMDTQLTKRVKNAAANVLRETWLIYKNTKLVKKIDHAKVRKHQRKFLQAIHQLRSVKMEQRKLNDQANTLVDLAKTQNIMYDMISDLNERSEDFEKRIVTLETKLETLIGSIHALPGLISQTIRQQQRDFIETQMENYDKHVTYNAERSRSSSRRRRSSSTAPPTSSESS
HEK cells expressing the channel of interest were plated onto poly-L-lysine-coated glass coverslips 1–2 days prior to patch-clamp analysis. […] The apparent Ki and Hill coefficient for each CFTR corrector on KCa3.1, KCa2.3, and KCa2.2 were determined during a continuous recording by step-wise addition of increasing concentrations of compound and fitting the resultant relative remaining current to a Hill equation (Prism v. 10.1.0). The zero current level was determined by the addition of a 0 Ca^2+ solution (zero-added Ca^2+ plus 1 mM EGTA) at the end of the experiment. […] Current–voltage relationships were determined by stepping from a holding potential of −80 mV to +80 mV in 20 mV increments for 400 ms. The middle 300 ms of each trace was selected to avoid any influence of capacitive transients, and average currents were calculated for each voltage via the I–V tool in Clampfit. […]
Background: Patch clamp records ionic current or voltage across a cell membrane.

For assay [1], the system named is BKCa (KCa1.1, KCNMA1) channels. Also on record: method as in PMID 38954478. Particulars: primary HBEs and HEK cells heterologously expressing the channel; cited from earlier work.
A further assay has as its target T1, KCa3.1 (Homo sapiens, UniProt O15554).
T1 construct: expressed in transfected cells
As to the kind of experiment: Excised inside-out patch-clamp on HEK-KCa3.1. The class given is biochemical. The protocol: Our Isc results are consistent with VX-445 inhibiting KCa3.1 in HBEs. To directly assess this possibility, we initially carried out whole-cell patch-clamp studies on undifferentiated HBEs. […] Upon application of 10 µM VX-445, a majority of this current was inhibited, averaging 87 ± 4% (n = 3, P < 0.005; Fig. 3B). A summary of the current–voltage (I–V) relationship—normalized to cell capacitance—is shown in Fig. 3C, which also includes the whole-cell I–V in the presence of Tram-34. […] To ensure isolation of KCa3.1 currents and to more fully characterize this VX-445-dependent inhibition of KCa3.1, we utilized HEK cells heterologously expressing KCa3.1 (HEK-KCa3.1). Initially, we confirmed our results from HBEs, using whole-cell recordings, as above. […] In seven experiments, this inhibition averaged 58 ± 7% (P < 0.005). […] It is well recognized that drugs are carried to their targets in the blood bound to albumin, which ranges from 3.4 to 5.4%. Thus, we determined whether VX-445 (10 µM) would inhibit KCa3.1 expressed in HEK cells in the presence of 3.4% albumin. In four experiments, VX-445 inhibited an average of 51 ± 17% of the whole-cell KCa3.1 current, which is not different from that observed in the absence of albumin. To confirm the direct effect of VX-445 on KCa3.1, we utilized the excised, inside-out patch-clamp technique. The patch was then exposed to DCEBIO (100 µM) to further activate the channels ([34–37])—analogous to our Isc studies in HBEs. […] In three experiments, VX-445 inhibited an average of 63 ± 6% of the KCa3.1 current. Based on these experiments, we determined the apparent inhibitory constant, Ki for VX-445. For these experiments, patches were excised into saturating Ca^2+ (3 µM) to ensure maximal KCa3.1 activation. These studies were carried out in the absence of DCEBIO to eliminate the possibility that the inhibition observed was due to competition for the DCEBIO-binding site.
as §2
HEK cells expressing the channel of interest were plated onto poly-L-lysine-coated glass coverslips 1–2 days prior to patch-clamp analysis. Electrophysiological recordings in the excised, inside-out, and whole-cell patch-clamp configurations were performed as recently described ([14]). For excised patch-clamp recordings, the pipette solution contained (in mM): 140 K-gluconate, 5 KCl, 1 CaCl2, 1 MgCl2, and 10 HEPES. The pH was adjusted to 7.2 with KOH. The bath solution contained (in mM): 145 K-gluconate, 5 KCl, 1.3 MgCl2, 10 HEPES, and 1 EGTA. Sufficient CaCl2 was added to obtain the desired free Ca^2+ concentration at a pH of 7.2 (adjusted with KOH). When recording KCa3.1 channels, ATP (300 µM) was added to the bath to diminish channel rundown ([73]). All recordings were carried out at a voltage of −100 mV, referenced to the extracellular compartment, as is standard. The apparent Ki and Hill coefficient for each CFTR corrector on KCa3.1, KCa2.3, and KCa2.2 were determined during a continuous recording by step-wise addition of increasing concentrations of compound and fitting the resultant relative remaining current to a Hill equation (Prism v. 10.1.0). The zero current level was determined by the addition of a 0 Ca^2+ solution (zero-added Ca^2+ plus 1 mM EGTA) at the end of the experiment. In the case of KCa3.1, TRAM-34, a known inhibitor of KCa3.1 ([45]), was used to confirm expression of the channel. For whole-cell experiments, pipettes contained (in mM): 145 K-gluconate, 10 EGTA, 7.5 CaCl2, 2 MgCl2, 3 mM NaATP, and 10 HEPES. The bath solution contained (in mM): 140 K-gluconate, 5 KCl, 1.0 MgCl2, 10 HEPES, and 2 CaCl2. Current–voltage relationships were determined by stepping from a holding potential of −80 mV to +80 mV in 20 mV increments for 400 ms. […]

`C[C@@H]1CN(c2nc(-n3ccc(OCCC4(C(F)(F)F)CC4)n3)ccc2C(=O)NS(=O)(=O)c2ccccc2)C(C)(C)C1` [VX-659, bamocaftor]: the Hill coefficient (in general, the slope factor of the fitted curve) at KCa2.3 (1 µM free Ca2+) was 1.9 and 1.3; on KCa2.2, 1.6 and 2.1; on KCa3.1 (3 µM free Ca2+, absence of DCEBIO), 1.8. In addition, the inhibition – broadly, the share of the control response that was lost under treatment – at 10 µM on KCa2.3 (read-out: inhibition of KCa2.3 currents) was 91 ± 3%; on KCa3.1 (10 µM compound after DCEBIO 100 µM, 1 µM free Ca2+, three experiments, read-out: inhibition of KCa3.1 current in excised patch) it was 98 ± 1%. In assay [1], the “effect on BKCa” value is on record as “weakly potentiates”. At KCa3.1 (3 µM free Ca2+, absence of DCEBIO, Hill fit, n = 4, read-out: apparent Ki), the Ki was 890 nM and 900 nM. Besides, the “selectivity among KCNN gene family members” value at KCa3.1 (KCa3.1 versus KCa2.2 and KCa2.3) is recorded as “inhibits all members of the KCNN gene family with a similar affinity”. Further, the relative remaining current at KCa3.1 ([VX-659] 0.3, Fig 4G single experiments) was 89 and 100 and 78 and 88.
